Assay results as given in patent US11344578B2, “Immune cells expressing engineered antigen receptors” (Board of Regents, The University of Texas System, priority 2017, dated 2022).
Entries after “also recorded” stand apart in the source; their conditions may differ.

Key:
iC9/CS1/IL15+NK cells = test: Inducible caspase-9 suicide gene test, annexin-V-7AAD staining; format: cell-based; details: 10 nM CID AP20187 added to cultures
Procedure: Because of concerns over autonomous, uncontrolled NK-cell growth due to autocrine production of IL-15, a suicide gene based on the inducible caspase-9 (IC9) gene was incorporated into the construct. To test the inducible caspase-9 suicide gene that was incorporated into the retroviral vector, 10 nM of CID AP20187 was added to cultures of iC9/CS1/IL15+NK cells. The AP20187 induced apoptosis/necrosis of transgenic cells within 4 hours as assessed by annexin-V-7AAD staining.

Raji leukemic B cells = test: Luciferase-expressing Raji NSG mouse model, in vivo bioluminescence imaging and survival; details: effect of IL-15 in the construct
Text: To determine the anti-leukemic effect of the CAR-transduced NK cells, they were infused into a “humanized” mouse model of lymphoblastic leukemia, the luciferase-expressing Raji NSG mouse model. To monitor the trafficking of CAR-CD191+CB-NK cells to tumor sites in vivo, the cells were labeled with the FFLuc vector, enabling monitoring by bioluminescence imaging. Engrafted mice received […] Raji leukemic B cells (2×10^6) injected intravenously and labeled with the RLuc vector to monitor tumor growth. Six to 10 days after tumor engraftment, mice were infused intravenously with 2×10^7 expanded CB-NK cells that were unmodified or CD19-CD28-zeta-2A-IL15 CB-NK cells labeled with FFLuc. All imaging was performed once a week for 3 weeks. Four groups of animals (n=10 per group) were studied, and the spleens, blood and lymph nodes of the mice were collected after they were euthanized.

glucocorticoid receptor = test: PCR based screening of glucocorticoid receptor knockout in hematopoietic cells; format: cell-based; details: T cells and NK cells; CRISPR-CAS9; FIG. 3
Text: To produce steroid-resistant immune cells, the CRISPR-CAS9 system was used to knockout glucocorticoid receptor in hematopoietic cells using gRNA SEQ ID NOs:1-2.

TGFβ-RII = test: CRISPR/CAS9 knockout of TGFβ-RII in CAR NK cells; format: cell-based; details: Cas9 plus gRNA targeting Exon 3; FIG. 6A
Procedure: Next, CRISPR-CAS9 was used to knockout TGFβ in CAR NK cells to render CAR NK cells resistant to the immunosuppressive effect of exogenous TGFβ. […] Wild type and TGF-β-RII knockout NK cells were treated with 10 ng/ml of recombinant TGF-β for 48 hrs and their response to K562 targets was assessed. […] TGFβ-RII knockout by CRISPR/CAS9 technology was also found to abrogate downstream Smad-2/3 phosphorylation in response to 10n g/ml of recombinant TGF-β compared to NK cells treated with CAS9 alone (FIG. 6C). Thus, CRISPR-CAS9-mediated knockout of TGFβ-RII renders NK cells resistant to TGFβ.

CC[C@H](C(=O)N1CCCC[C@H]1C(=O)O[C@H](CCc1ccc(OC)c(OC)c1)c1cccc(OCC(=O)NCC(CNC(=O)COc2cccc([C@@H](CCc3ccc(OC)c(OC)c3)OC(=O)[C@@H]3CCCCN3C(=O)[C@@H](CC)c3cc(OC)c(OC)c(OC)c3)c2)CN(C)C)c1)c1cc(OC)c(OC)c(OC)c1 [AP20187]
time to apoptosis/necrosis of transgenic cells (iC9/CS1/IL15+NK cells): ≤ 4 h

IL-15: interleukin-15 co-expressed from the CAR construct in NK cells
NK-CAR mediated killing of tumor (Raji leukemic B cells; FIG. 2A): enhances; also recorded: increase
survival (Raji leukemic B cells; FIG. 2B): prolong survival

gRNA SEQ ID NOs:1-2: guide RNAs Ex3 NR3C1 sG1 and sG2 used with CAS9 to knock out glucocorticoid receptor (guide 1 TGCTGTTGAGGAGCTGGA; guide 2 AGCACACCAGGCAGAGTT; used with Cas9, further chemistry not given here)
glucocorticoid receptor knockout by PCR based screening (glucocorticoid receptor): efficient knockdown

gRNA SEQ ID NOs:3-4: guide RNAs EX3 TGFBR2 sG1 and sG2 used with Cas9 to knock out TGFβ-RII (guide 1 CGGCTGAGGAGCGGAAGA; guide 2 TGGAGGTGAGCAATCCCC; used with Cas9, further chemistry not given here)
knockout of TGFβ-RII (TGFβ-RII): Successful knockout
